Experiments:
Type in all cases: physicochemical
[1] = Dynamic surface tension of aqueous solutions, maximum bubble pressure method
From the text: where n is 2-6, preferably 2-4; m is 0-4, preferably 0-2; and p and q are 2-6, preferably 2 or 3; and R and R′ independently are an alkyl group comprising 5 to 18 carbons, preferably 5 to 8 carbons which is branched or in which the point of attachment to nitrogen is on a nonterminal carbon, for the reduction of equilibrium and dynamic surface tension in water-based compositions containing an organic compound, particularly coating, ink, and agricultural compositions containing organic compounds such as polymeric resins, herbicides, pesticides or plant growth modifying agents. […] The maximum-bubble-pressure method of measuring surface tension is described in Langmuir 1986, 2, 428-432, which is incorporated by reference.
Dynamic surface tension data were obtained for aqueous solutions of the reductive alkylation product of the dialkylated aminoethylether of Example 1 using the maximum bubble pressure method at bubble rates from 0.1 bubbles/second (b/s) to 20 b/s. […] In practical terms, high bubble rates correspond to high printing speeds in lithographic printing, high spray or roller velocities in coating applications, and rapid application rates for agricultural products.

Solubility in water = experiment: Solubility in water
[2] = Foam test based upon ASTM D 1173-53; conditions: 0.1 wt % solution
Procedure: The foaming properties of 0.1 wt % solutions of the reductive alkylation products of the products of this invention were examined using a procedure based upon ASTM D 1173-53. In this test, a 0.1 wt % solution of the surfactant is added from an elevated foam pipette to a foam receiver containing the same solution. The foam height is measured at the completion of the addition (“Initial Foam Height”) and the time required for the foam to dissipate is recorded (“Time to 0 Foam”). This test provides a comparison between the foaming characteristics of various surfactant solutions. In general, in coatings, inks, and agricultural formulations, foam is undesirable because is complicates handling and can lead to coating and print defects, and to inefficient application of agricultural materials.

Row | Dynamic Surface Tension ([1]; 0.1 wt % in water, 0.1 b/s) | Dynamic Surface Tension ([1]; 0.1 wt % in water, 1 b/s) | Dynamic Surface Tension ([1]; 0.1 wt % in water, 6 b/s) | Dynamic Surface Tension ([1]; 0.1 wt % in water, 15 b/s) | Dynamic Surface Tension ([1]; 0.1 wt % in water, 20 b/s) | Dynamic Surface Tension ([1]; 0.15 wt % in water, 0.1 b/s) | Dynamic Surface Tension ([1]; 0.15 wt % in water, 1 b/s) | Dynamic Surface Tension ([1]; 0.15 wt % in water, 6 b/s) | Dynamic Surface Tension ([1]; 0.15 wt % in water, 15 b/s) | Dynamic Surface Tension ([1]; 0.15 wt % in water, 20 b/s) | Dynamic Surface Tension ([1]; 0.2 wt % in water, 0.1 b/s) | Dynamic Surface Tension ([1]; 0.2 wt % in water, 1 b/s) | Dynamic Surface Tension ([1]; 0.2 wt % in water, 6 b/s) | Dynamic Surface Tension ([1]; 0.2 wt % in water, 15 b/s) | Dynamic Surface Tension ([1]; 0.2 wt % in water, 20 b/s) | Dynamic Surface Tension ([1]; 0.5 wt % in water, 0.1 b/s) | Dynamic Surface Tension ([1]; 0.5 wt % in water, 1 b/s) | Dynamic Surface Tension ([1]; 0.5 wt % in water, 6 b/s) | Initial Foam Height [2] | Time to 0 Foam [2] | SMILES | also measured
1 | 30.3 dyne/cm | 30.8 dyne/cm | 31.8 dyne/cm | 33.4 dyne/cm | 34.1 dyne/cm | 27.6 dyne/cm | 27.9 dyne/cm | 28.7 dyne/cm | 30.1 dyne/cm | 30.6 dyne/cm | 26.7 dyne/cm | 26.9 dyne/cm | 27.4 dyne/cm | 28.8 dyne/cm | 29.3 dyne/cm | – | – | – | – | – | CC(C)CC(C)NCCOCCNC(C)CC(C)C (stereo not shown) [AEE/MIBK2] | Dynamic Surface Tension ([1]; 0.03 wt % in water, 0.1 b/s): 37.9 dyne/cm; Dynamic Surface Tension ([1]; 0.03 wt % in water, 1 b/s): 39.0 dyne/cm; Dynamic Surface Tension ([1]; 0.03 wt % in water, 6 b/s): 42.8 dyne/cm; Dynamic Surface Tension ([1]; 0.03 wt % in water, 15 b/s): 47.9 dyne/cm; Dynamic Surface Tension ([1]; 0.03 wt % in water, 20 b/s): 48.2 dyne/cm; Dynamic Surface Tension ([1]; 0.05 wt % in water, 0.1 b/s): 34.7 dyne/cm; Dynamic Surface Tension ([1]; 0.05 wt % in water, 1 b/s): 35.4 dyne/cm; Dynamic Surface Tension ([1]; 0.05 wt % in water, 6 b/s): 37.6 dyne/cm; Dynamic Surface Tension ([1]; 0.05 wt % in water, 15 b/s): 40.9 dyne/cm; Dynamic Surface Tension ([1]; 0.05 wt % in water, 20 b/s): 41.9 dyne/cm; Dynamic Surface Tension ([1]; 0.07 wt % in water, 0.1 b/s): 32.4 dyne/cm; Dynamic Surface Tension ([1]; 0.07 wt % in water, 1 b/s): 33.0 dyne/cm; Dynamic Surface Tension ([1]; 0.07 wt % in water, 6 b/s): 34.5 dyne/cm; Dynamic Surface Tension ([1]; 0.07 wt % in water, 15 b/s): 36.8 dyne/cm; Dynamic Surface Tension ([1]; 0.07 wt % in water, 20 b/s): 37.7 dyne/cm; solubility limit (Solubility in water): about 0.2 wt %
2 | 39.2 dyne/cm | 39.7 dyne/cm | 40.8 dyne/cm | 42.0 dyne/cm | 42.2 dyne/cm | – | – | – | – | – | – | – | – | – | – | 30.6 dyne/cm | 30.7 dyne/cm | 31.0 dyne/cm | 3.1 cm | 5 s | CC(C)CC(C)NCCCOCCOCCOCCCNC(C)CC(C)C (stereo not shown) [BAPEE/MIBK2] | Dynamic Surface Tension ([1]; 0.5 wt % in water, 15 b/s): 31.8 dyne/cm; Dynamic Surface Tension ([1]; 0.5 wt % in water, 20 b/s): 32.2 dyne/cm
3 | 30.8 dyne/cm | 31.3 dyne/cm | 32.6 dyne/cm | 34.4 dyne/cm | 34.9 dyne/cm | 29.3 dyne/cm | 29.9 dyne/cm | 30.1 dyne/cm | 32.9 dyne/cm | 33.3 dyne/cm | – | – | – | – | – | – | – | – | 1.0 cm | 2 s | CC(C)CC(C)NCCCOCCCNC(C)CC(C)C (stereo not shown) [APE/MIBK2] | –
4 | 35.5 dyne/cm | 36.0 dyne/cm | 37.2 dyne/cm | 38.7 dyne/cm | 39.2 dyne/cm | – | – | – | – | – | 31.6 dyne/cm | 32.0 dyne/cm | 32.9 dyne/cm | 33.8 dyne/cm | 34.1 dyne/cm | 29.7 dyne/cm | 29.8 dyne/cm | 30.1 dyne/cm | 2.6 cm | 8 s | CC(C)CC(C)NCCCOCCOCCCNC(C)CC(C)C (stereo not shown) [BAPE/MIBK2] | Dynamic Surface Tension ([1]; 0.5 wt % in water, 15 b/s): 30.8 dyne/cm; Dynamic Surface Tension ([1]; 0.5 wt % in water, 20 b/s): 31.0 dyne/cm; solubility (in words) (Solubility in water): relatively high solubility
